Measurements as given in PubChem BioAssay (NCI).
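How tested: cells in 96-well plates exposed to compound for 48 hours at five concentrations. GI50 = concentration required for 50% inhibition of growth. At the TGI there is no net growth.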

How the values were obtained:
Assay in all cases: NCI anticancer screen, dose series, 48 h
DLD-1 colon = system: DLD-1 colon
DMS 114 small cell lung = system: DMS 114 small cell lung
DMS 273 small cell lung = system: DMS 273 small cell lung
HT29 colon = system: HT29 colon
KM20L2 colon = system: KM20L2 colon
LXFL 529 NSCLC = system: LXFL 529 NSCLC
M14 melanoma = system: M14 melanoma
M19-MEL melanoma = system: M19-MEL melanoma
SK-MEL-5 melanoma = system: SK-MEL-5 melanoma
SNB-78 CNS = system: SNB-78 CNS
HOP-18 NSCLC = system: HOP-18 NSCLC
MDA-MB-435 = system: MDA-MB-435

SMILES | TGI (DLD-1 colon) | TGI (DMS 114 small cell lung) | TGI (DMS 273 small cell lung) | TGI (HT29 colon) | TGI (KM20L2 colon) | TGI (LXFL 529 NSCLC) | TGI (M14 melanoma) | TGI (M19-MEL melanoma) | TGI (SK-MEL-5 melanoma) | TGI (SNB-78 CNS) | GI50 (DLD-1 colon) | GI50 (DMS 114 small cell lung) | GI50 (DMS 273 small cell lung) | GI50 (HOP-18 NSCLC) | TGI (HOP-18 NSCLC) | GI50 (KM20L2 colon) | GI50 (LXFL 529 NSCLC) | GI50 (M19-MEL melanoma) | GI50 (SNB-78 CNS) | TGI (MDA-MB-435)
CSCCC(C(=O)O)N(CC1(O)OCC(O)C(O)C1O)N=O (stereo unspecified) | > 100 µM | > 100 µM | > 100 µM | > 100 µM | > 100 µM | > 100 µM | > 100 µM | > 100 µM | > 100 µM | > 100 µM |  |  |  |  |  |  |  |  |  | 
O=c1c([OH2+])c(-c2ccc(O)cc2[O-])oc2cc(O)cc([O-])c12.O=c1c([OH2+])c(-c2ccc(O)cc2[O-])oc2cc(O)cc([O-])c12.[Ti+4] | > 100 µM | > 100 µM | > 100 µM | > 100 µM | > 100 µM | > 100 µM | > 100 µM | > 100 µM | > 100 µM | > 100 µM | > 100 µM | > 100 µM | > 100 µM | > 100 µM | > 100 µM | > 100 µM | > 100 µM | > 100 µM | > 100 µM | 
COc1ccc(-c2cc(=O)c3c(O)cc(O)cc3o2)c(OC)c1OC | > 100 µM | > 100 µM |  | > 100 µM | > 100 µM | > 100 µM | > 100 µM | > 100 µM |  |  |  |  |  |  |  |  |  |  |  | 
CC1=C2C3OC(=O)C(C)C3CCC2(C)C=CC1=Nc1ccccc1 (stereo unspecified) | > 100 µM | > 100 µM | > 100 µM | > 100 µM | > 100 µM |  |  | > 100 µM | > 100 µM | > 100 µM |  |  |  |  | > 100 µM |  |  |  |  | 
C=C1Cc2cc(OC)c(OC)c(OC)c2-c2ccc(SC)c(=O)cc21 | 3.7 µM | < 0.0279 µM |  | < 0.01 µM |  | 1.81 µM |  | 2.42 µM | 13.3 µM | 49.4 µM |  |  |  |  | 11.9 µM |  |  |  |  | 
CN(C(=O)c1ccco1)C(=S)N1CCN(c2ccccn2)CC1 | > 100 µM |  | > 100 µM | > 100 µM | > 100 µM | > 100 µM | > 100 µM | > 100 µM | > 100 µM | > 100 µM |  |  |  |  | > 100 µM |  |  |  |  | 
CCCN(CCC)C1=Nc2ccccc2-n2cnnc2C1 |  | > 100 µM | > 100 µM | > 100 µM | > 100 µM | > 100 µM | > 100 µM | > 100 µM | > 100 µM | > 100 µM |  |  |  |  |  |  |  |  |  | 
COc1c2c(cc3c1C(=O)Cc1ccc4c(c1CN(C)CC3)OCO4)OCO2 | > 100 µM | > 100 µM |  | > 100 µM | > 100 µM |  | > 100 µM | > 100 µM | > 100 µM | > 100 µM |  |  |  |  | > 100 µM |  |  |  |  | 
O=c1c2c(c1=O)-c1ccccc1CN2 | > 100 µM | > 100 µM | > 100 µM | > 100 µM | > 100 µM | > 100 µM | > 100 µM | > 100 µM | > 100 µM | > 100 µM |  |  |  |  |  |  |  |  |  | 
O=c1ccnc2ccc3n[nH][nH]c3c12 | > 100 µM | > 100 µM | > 100 µM | > 100 µM | > 100 µM | > 100 µM | > 100 µM | > 100 µM | > 100 µM | > 100 µM |  |  |  |  | > 100 µM |  |  |  |  | 
CCOC(=O)C1(Br)S(=O)(=O)OCCOS1(=O)=O | > 100 µM | > 100 µM | > 100 µM | > 100 µM | > 100 µM |  | > 100 µM | > 100 µM | > 100 µM | > 100 µM |  |  |  |  |  |  |  |  |  | 
COc1cccc(NC(=O)C(=O)C2C=CCS2(=O)=O)c1 (stereo unspecified) | > 100 µM | > 100 µM |  | > 100 µM | > 100 µM | > 100 µM | > 100 µM | > 100 µM | > 100 µM |  |  |  |  |  | > 100 µM |  |  |  |  | 
O=C1C=CC2(C=C1)C[C@H](NC(=O)OCc1ccccc1)C(=O)O2 | 14.1 µM | 47.2 µM | 35 µM | 31.9 µM | 38.7 µM | 24.7 µM | 32.6 µM | 33.7 µM | 47.9 µM | 67.2 µM |  |  |  |  | 31.5 µM |  |  |  |  | 
COC(=O)C1(C)NCCc2c1[nH]c1ccccc21 (stereo unspecified) | > 100 µM | > 100 µM |  | > 100 µM | > 100 µM | > 100 µM | > 100 µM | > 100 µM | > 100 µM |  |  |  |  |  |  |  |  |  |  | 
CN(CCCn1ccnc1[N+](=O)[O-])CCCn1ccnc1[N+](=O)[O-] |  |  |  | > 100 µM |  |  | > 100 µM |  | > 100 µM |  |  |  |  |  |  |  |  |  |  | > 100 µM
COc1ccc(C(=O)/C=C/c2ccc(OCC(=N)N)cc2)cc1 |  |  |  | 28.8 µM |  |  | 32.6 µM |  | 33.1 µM |  |  |  |  |  |  |  |  |  |  | 36.8 µM
N#Cc1ccc(C2NN=CC23C(=O)c2ccccc2OC3c2ccccc2)cc1 (stereo unspecified) |  |  |  | > 100 µM |  |  | > 100 µM |  | 74.8 µM |  |  |  |  |  |  |  |  |  |  | > 100 µM
COC(=O)C1=C(CCC[C@H](C)O[Si](C)(C)C(C)(C)C)NC(=O)N2[C@@H](CCO)CC[C@H]12 |  |  |  | 29.8 µM |  |  | 30.9 µM |  | 21 µM |  |  |  |  |  |  |  |  |  |  | 39.7 µM
COc1cc2c[n+](C)c3c4cc(OC)c(OC)cc4ccc3c2cc1OC |  |  |  | > 100 µM |  |  | > 100 µM |  | > 100 µM |  |  |  |  |  |  |  |  |  |  | > 100 µM
CN(C(=O)c1ccc(OCCCC(=O)O)c(Cl)c1Cl)C1CCCC1 | > 100 µM | > 100 µM | > 100 µM | > 100 µM | > 100 µM |  |  | > 100 µM | > 100 µM | > 100 µM |  |  |  |  | > 100 µM |  |  |  |  | 
[N-]=[N+]=CC(=O)CCC(=O)N(c1ccccc1)c1ccccc1 |  |  |  | > 10 µM |  |  | > 10 µM |  | > 10 µM |  |  |  |  |  |  |  |  |  |  | > 10 µM
COc1ccc(/C(=N\Nc2ccccn2)c2ccccn2)cc1 |  |  |  | 14 µM |  |  | 3.76 µM |  | 11.7 µM |  |  |  |  |  |  |  |  |  |  | 22.3 µM
CC[C@H](C)[C@H](NC(=O)[C@@]1(O)[C@H](O)[C@]2(CC)C=CCN3CC[C@@]4(c5cc(Br)c(OC)cc5N(C)[C@@H]14)[C@@H]32)C(=O)OC |  |  |  | 30.5 µM |  |  | 84.5 µM |  | 87.4 µM |  |  |  |  |  |  |  |  |  |  | 71.3 µM
Cc1cccc2c1c(=O)c1c(O)cc(O)cc1n2C |  |  |  | > 100 µM |  |  | > 100 µM |  | > 100 µM |  |  |  |  |  |  |  |  |  |  | > 100 µM
C/C(Cc1ccc2c(c1)OCO2)=N\NC(=O)C(C)Sc1nnc(SC(C)C(=O)N/N=C(\C)Cc2ccc3c(c2)OCO3)s1 (stereo unspecified) |  |  |  | > 100 µM |  |  | > 100 µM |  | > 100 µM |  |  |  |  |  |  |  |  |  |  | > 100 µM
N#Cc1c(N2CCN(c3ccc([N+](=O)[O-])cc3)CC2)[n+](=O)c2ccccc2n1[O-] |  |  |  | > 100 µM |  |  | > 100 µM |  | > 100 µM |  |  |  |  |  |  |  |  |  |  | > 100 µM
CC(=O)/C(C=Nc1c(C)n(C)n(C)c1=O)=C(/O)c1ccccc1 |  |  |  | > 50 µM |  |  | > 50 µM |  | > 50 µM |  |  |  |  |  |  |  |  |  |  | > 50 µM
